{"source": "patent US20240116885A1", "about": "“BENZOTHIAZOLE AND QUINOLINE DERIVATIVES AND THEIR USE” (Shanghai Yao Yuan Biotechnology Co., Ltd., priority 2020, published 2024)", "key": {"[1]": {"test_system": "ALPK1-dependent NFκB reporter gene activation", "assay": "NFκB gene reporter alkaline phosphatase assay in HEK293 G9 cells", "type": "cell-based", "details": "Homo sapiens; HEK293 G9 cells stimulated with D-glycero-D-manno-6-fluoro-heptose-1β-S-ADP", "description": "An alkaline phosphatase reporter assay system was used to measure inhibition of ALPK1-dependent NFκB reporter gene activation. Briefly, HEK293 cells stably expressing an NF-kB reporter (referred to herein as “G9 cells”) were maintained in DMEM as described above. For the assay, cells were seeded into 96-well plates at a density of 10,000 cells/well in Freestyle™ 293 Expression Medium (ThermoFisher), and allowed to attach overnight. Cells were pretreated with serially diluted compounds for 30 min and then stimulated with D-glycero-D-manno-6-fluoro-heptose-1β-S-ADP. […] NFkB gene activation was detected using the chromogenic substrate, para-nitrophenyl phosphate (pNPP) according to the manufacturer's protocols (pNPP Phosphatase Assay, Beyotime Biotechnology)."}, "ALPK1": {"target": "ALPK1 (Homo sapiens (Human), UniProt Q96QP1)", "sequence (Q96QP1 whole entry)": "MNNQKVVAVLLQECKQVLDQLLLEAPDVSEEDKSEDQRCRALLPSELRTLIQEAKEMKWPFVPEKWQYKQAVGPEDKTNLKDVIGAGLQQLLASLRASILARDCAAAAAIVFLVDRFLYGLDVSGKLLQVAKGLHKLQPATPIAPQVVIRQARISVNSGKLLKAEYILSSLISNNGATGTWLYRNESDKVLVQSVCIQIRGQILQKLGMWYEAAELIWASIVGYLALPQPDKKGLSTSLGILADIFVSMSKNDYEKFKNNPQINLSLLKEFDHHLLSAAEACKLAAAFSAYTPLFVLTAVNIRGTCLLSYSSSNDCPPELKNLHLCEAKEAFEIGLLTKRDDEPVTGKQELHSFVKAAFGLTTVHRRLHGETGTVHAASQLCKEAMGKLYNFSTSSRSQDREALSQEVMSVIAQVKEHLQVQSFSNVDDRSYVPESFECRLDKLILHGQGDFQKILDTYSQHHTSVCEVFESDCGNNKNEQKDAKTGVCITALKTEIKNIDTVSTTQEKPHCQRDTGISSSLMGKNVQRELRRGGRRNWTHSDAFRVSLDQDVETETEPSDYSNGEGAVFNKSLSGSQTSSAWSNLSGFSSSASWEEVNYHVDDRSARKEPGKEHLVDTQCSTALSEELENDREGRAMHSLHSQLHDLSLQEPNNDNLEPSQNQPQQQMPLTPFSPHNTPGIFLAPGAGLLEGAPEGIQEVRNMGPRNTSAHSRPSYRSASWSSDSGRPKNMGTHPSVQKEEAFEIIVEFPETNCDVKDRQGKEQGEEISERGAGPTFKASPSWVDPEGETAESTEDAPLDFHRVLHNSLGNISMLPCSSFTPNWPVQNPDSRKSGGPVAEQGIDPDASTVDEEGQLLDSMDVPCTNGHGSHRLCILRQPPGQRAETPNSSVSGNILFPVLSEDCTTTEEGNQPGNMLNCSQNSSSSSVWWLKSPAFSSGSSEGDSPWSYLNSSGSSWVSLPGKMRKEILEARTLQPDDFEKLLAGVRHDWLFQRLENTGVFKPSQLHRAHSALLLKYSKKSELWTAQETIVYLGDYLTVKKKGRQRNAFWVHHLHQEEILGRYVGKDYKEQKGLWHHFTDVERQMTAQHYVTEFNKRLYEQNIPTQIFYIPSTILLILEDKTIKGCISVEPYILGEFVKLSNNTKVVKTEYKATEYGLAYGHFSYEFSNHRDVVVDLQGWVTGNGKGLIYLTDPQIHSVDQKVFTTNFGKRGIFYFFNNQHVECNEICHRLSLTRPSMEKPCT", "assay": "ALPK1 in vitro kinase assay (HTRF, TIFA phosphorylation)", "type": "biochemical", "details": "ADP-Heptose activated ALPK1", "description": "ALPK1 kinase activity was measured in an in vitro assay using ADP-Heptose as the ALPK1 ligand and activator of its kinase activity and TIFA protein as the ALPK1 phosphorylation substrate. Since phosphorylated TIFA proteins oligomerize, Homogeneous Time-Resolved Fluorescence (HTRF) was used to measure protein:protein interaction between HA-tagged TIFA proteins as an indicator of TIFA phosphorylation.\nIn brief, dose-response studies were performed with HEK293 cells cultured in Dulbecco's Modified Eagle Medium (DMEM) supplemented 10% fetal bovine serum (FBS, Hyclone™) containing antibiotics (pen/strep, G418) in 384-well assay plates. Each well contained 0.1 mg TIFA, ALPK1 (2 nM final concentration in reaction mixture) and kinase buffer (100 mM of HEPES pH 7.4, 4 mM DTT, 40 mM MgCl2, 20 mM of β-Glycerol phosphate disodium salt, 0.4 mM of Na3VO4, 0.16 mg/mL). Titrations of the test compounds were prepared in dimethylsulphoxide (DMSO). The reaction was initiated by addition of ATP and ADP-Heptose.\nFor HTRF, samples were incubated with a Tb cryptate-labeled anti-HA antibody for capturing HA-tagged proteins according to the manufacturer's instructions (PerkinElmer™, CisBio™) and the fluorescence signal was quantified (Tecan Infinite F NANO+). HTRF signals were calculated as the HTRF ratio (ratio of fluorescence measured at 665 nm and 620 nm)×104 (thereby using the signal at 620 nm as an internal standard).\nIC50 values were determined using 3- or 4-parameter logistic equation using GraphPad Prism version 6.00. The reference compound, A027, was used as a positive control for each plate."}}, "note": "pIC50: −log10 of the molar value."}
{"smiles": "COc1cccc2sc(NC(=O)c3c(F)cc(N4CCN(CCO)CC4)cc3F)nc12", "note": "[Compound T025, 2,6-difluoro-4-(4-(2-hydroxyethyl)piperazin-1-yl)-N-(4-methoxybenzo[d]thiazol-2-yl)benzamide]", "values": [{"measurement": "pIC50", "setting": "[1]", "value": 5.53}, {"measurement": "pIC50", "setting": "ALPK1", "value": 6.83}]}
{"smiles": "COc1cccc2sc(NC(=O)c3c(F)cc(N4CCC(N)C4)cc3F)nc12", "note": "(stereo not shown) [Compound T026, 4-(3-aminopyrrolidin-1-yl)-2,6-difluoro-N-(4-methoxybenzo[d]thiazol-2-yl)benzamide]", "values": [{"measurement": "pIC50", "setting": "[1]", "value": 5.62}, {"measurement": "pIC50", "setting": "ALPK1", "value": 6.90}]}
{"smiles": "COc1cccc2sc(NC(=O)c3c(F)cc(N4CCC(O)C4)cc3F)nc12", "note": "(stereo not shown) [Compound T027, 2,6-difluoro-4-(3-hydroxypyrrolidin-1-yl)-N-(4-methoxybenzo[d]thiazol-2-yl)benzamide]", "values": [{"measurement": "pIC50", "setting": "[1]", "value": 5.44}, {"measurement": "pIC50", "setting": "ALPK1", "value": 5.93}]}
{"smiles": "COc1cccc2sc(NC(=O)c3c(F)cc(N4CCC(O)CC4)cc3F)nc12", "note": "[Compound T028, 2,6-difluoro-4-(4-hydroxypiperidin-1-yl)-N-(4-methoxybenzo[d]thiazol-2-yl)benzamide]", "values": [{"measurement": "pIC50", "setting": "[1]", "value": 5.83}, {"measurement": "pIC50", "setting": "ALPK1", "value": 6.61}]}
{"smiles": "COc1cccc2sc(NC(=O)c3c(F)cc(OCCO)cc3F)nc12", "note": "[Compound T029, 2,6-difluoro-4-(2-hydroxyethoxy)-N-(4-methoxybenzo[d]thiazol-2-yl)benzamide]", "values": [{"measurement": "pIC50", "setting": "[1]", "value": 5.52}, {"measurement": "pIC50", "setting": "ALPK1", "value": 6.25}]}
{"smiles": "COc1cc(F)cc2sc(NC(=O)c3c(F)cc(N4CCNCC4)cc3F)nc12", "note": "[Compound T030, 2,6-difluoro-N-(6-fluoro-4-methoxybenzo[d]thiazol-2-yl)-4-(piperazin-1-yl)benzamide]", "values": [{"measurement": "pIC50", "setting": "[1]", "value": 5.65}, {"measurement": "pIC50", "setting": "ALPK1", "value": 6.50}]}
{"smiles": "O=C(Nc1nc2c(Br)cccc2s1)c1c(F)cc(N2CCNC(CO)C2)cc1F", "note": "(stereo not shown) [Compound T033, N-(4-bromobenzo[d]thiazol-2-yl)-2,6-difluoro-4-(3-(hydroxymethyl)piperazin-1-yl)benzamide]", "values": [{"measurement": "pIC50", "setting": "[1]", "value": 5.88}, {"measurement": "pIC50", "setting": "ALPK1", "value": 7.42}]}
{"smiles": "Cc1cc(Cl)cc2sc(NC(=O)c3c(F)cc(N4CCNCC4)cc3F)nc12", "note": "[Compound T038, N-(6-chloro-4-methylbenzo[d]thiazol-2-yl)-2,6-difluoro-4-(piperazin-1-yl)benzamide]", "values": [{"measurement": "pIC50", "setting": "[1]", "value": 5.00}, {"measurement": "pIC50", "setting": "ALPK1", "value": 6.59}]}
{"smiles": "COc1cccc2sc(NC(=O)c3c(F)cc(C(=O)N4CCNCC4)cc3F)nc12", "note": "[Compound T040, 2,6-difluoro-N-(4-methoxybenzo[d]thiazol-2-yl)-4-(piperazine-1-carbonyl)benzamide]", "values": [{"measurement": "pIC50", "setting": "[1]", "value": 5.20}, {"measurement": "pIC50", "setting": "ALPK1", "value": 6.47}]}
{"smiles": "COc1cc(Cl)cc2sc(NC(=O)c3c(F)cc(N4CCNCC4)cc3F)nc12", "note": "[Compound T043, N-(6-chloro-4-methoxybenzo[d]thiazol-2-yl)-2,6-difluoro-4-(piperazin-1-yl)benzamide]", "values": [{"measurement": "pIC50", "setting": "[1]", "value": 5.40}, {"measurement": "pIC50", "setting": "ALPK1", "value": 6.40}]}
{"smiles": "CN1CCN(c2cc(F)c(C(=O)Nc3nc4c(Br)cccc4s3)c(F)c2)CC1", "note": "[Compound T044, N-(4-bromobenzo[d]thiazol-2-yl)-2,6-difluoro-4-(4-methylpiperazin-1-yl)benzamide]", "values": [{"measurement": "pIC50", "setting": "[1]", "value": 5.96}, {"measurement": "pIC50", "setting": "ALPK1", "value": 7.89}]}
{"smiles": "O=C(Nc1nc2c(O)cccc2s1)c1c(F)cc(N2CCNCC2)cc1F", "note": "[Compound T045, 2,6-difluoro-N-(4-hydroxybenzo[d]thiazol-2-yl)-4-(piperazin-1-yl)benzamide]", "values": [{"measurement": "pIC50", "setting": "[1]", "value": 5.38}, {"measurement": "pIC50", "setting": "ALPK1", "value": 5.78}]}
{"smiles": "O=C(Nc1nc2c(Cl)cccc2s1)c1c(F)cc(N2CCNCC2)cc1F", "note": "[Compound T046, N-(4-chlorobenzo[d]thiazol-2-yl)-2,6-difluoro-4-(piperazin-1-yl)benzamide]", "values": [{"measurement": "pIC50", "setting": "[1]", "value": 5.88}, {"measurement": "pIC50", "setting": "ALPK1", "value": 7.25}]}
{"smiles": "C#Cc1cccc2sc(NC(=O)c3c(Cl)cc(N4CCNCC4)cc3Cl)nc12", "note": "[Compound T048, 2,6-dichloro-N-(4-ethynylbenzo[d]thiazol-2-yl)-4-(piperazin-1-yl)benzamide]", "values": [{"measurement": "pIC50", "setting": "[1]", "value": 5.15}, {"measurement": "pIC50", "setting": "ALPK1", "value": 8.05}]}
{"smiles": "CC#Cc1cccc2sc(NC(=O)c3c(F)cc(N4CCNCC4)cc3F)nc12", "note": "[Compound T049, 2,6-difluoro-4-(piperazin-1-yl)-N-(4-(prop-1-yn-1-yl)benzo[d]thiazol-2-yl)benzamide]", "values": [{"measurement": "pIC50", "setting": "[1]", "value": 5.68}, {"measurement": "pIC50", "setting": "ALPK1", "value": 7.37}]}
{"smiles": "C#Cc1cccc2sc(NC(=O)c3c(C)cc(N4CCNCC4)cc3F)nc12", "note": "[Compound T050, N-(4-ethynylbenzo[d]thiazol-2-yl)-2-fluoro-6-methyl-4-(piperazin-1-yl)benzamide]", "values": [{"measurement": "pIC50", "setting": "[1]", "value": 6.02}, {"measurement": "pIC50", "setting": "ALPK1", "value": 7.01}]}
{"smiles": "C#Cc1cccc2sc(NC(=O)c3c(F)cc(N4CCNCC4C(C)C)cc3F)nc12", "note": "(stereo not shown) [Compound T051, N-(4-ethynylbenzo[d]thiazol-2-yl)-2,6-difluoro-4-(2-isopropylpiperazin-1-yl)benzamide]", "values": [{"measurement": "pIC50", "setting": "[1]", "value": 5.80}, {"measurement": "pIC50", "setting": "ALPK1", "value": 7.25}]}
{"smiles": "C#Cc1cccc2sc(NC(=O)c3c(F)cc(N4CCNCC4CC)cc3F)nc12", "note": "(stereo not shown) [Compound T052, 4-(2-ethylpiperazin-1-yl)-N-(4-ethynylbenzo[d]thiazol-2-yl)-2,6-difluorobenzamide]", "values": [{"measurement": "pIC50", "setting": "[1]", "value": 5.88}, {"measurement": "pIC50", "setting": "ALPK1", "value": 7.24}]}
{"smiles": "C#Cc1cccc2sc(NC(=O)c3c(F)cc(N4CC[C@@H](N)C4)cc3F)nc12", "note": "[Compound T053, (R)-4-(3-aminopyrrolidin-1-yl)-N-(4-ethynylbenzo[d]thiazol-2-yl)-2,6-difluorobenzamide]", "values": [{"measurement": "pIC50", "setting": "[1]", "value": 6.05}, {"measurement": "pIC50", "setting": "ALPK1", "value": 7.08}]}
{"smiles": "C#Cc1cccc2sc(NC(=O)c3c(F)cc(N4CCN(C(N)=O)CC4)cc3F)nc12", "note": "[Compound T055, 4-(4-((4-ethynylbenzo[d]thiazol-2-yl)carbamoyl)-3,5-difluorophenyl)piperazine-1-carboxamide]", "values": [{"measurement": "pIC50", "setting": "[1]", "value": 5.67}, {"measurement": "pIC50", "setting": "ALPK1", "value": 6.90}]}
{"smiles": "C#Cc1cccc2sc(NC(=O)c3c(F)cc(N4CCNCC4C)cc3F)nc12", "note": "(stereo not shown) [Compound T059, N-(4-ethynylbenzo[d]thiazol-2-yl)-2,6-difluoro-4-(2-methylpiperazin-1-yl)benzamide]", "values": [{"measurement": "pIC50", "setting": "[1]", "value": 6.26}, {"measurement": "pIC50", "setting": "ALPK1", "value": 7.37}]}
{"smiles": "C#Cc1cccc2sc(NC(=O)c3c(F)cc(N4CCNC[C@H]4C)cc3F)nc12", "note": "[Compound T061, (R)-N-(4-ethynylbenzo[d]thiazol-2-yl)-2,6-difluoro-4-(2-methylpiperazin-1-yl)benzamide]", "values": [{"measurement": "pIC50", "setting": "[1]", "value": 6.52}, {"measurement": "pIC50", "setting": "ALPK1", "value": 7.52}]}
{"smiles": "C#Cc1cccc2sc(NC(=O)c3c(F)cc(N4CC[C@H](N)C4)cc3F)nc12", "note": "[Compound T062, (S)-4-(3-aminopyrrolidin-1-yl)-N-(4-ethynylbenzo[d]thiazol-2-yl)-2,6-difluorobenzamide]", "values": [{"measurement": "pIC50", "setting": "[1]", "value": 6.06}, {"measurement": "pIC50", "setting": "ALPK1", "value": 7.05}]}
{"smiles": "C#Cc1cccc2sc(NC(=O)c3c(F)cc(N4CCOCC4)cc3F)nc12", "note": "[Compound T063, N-(4-ethynylbenzo[d]thiazol-2-yl)-2,6-difluoro-4-morpholinobenzamide]", "values": [{"measurement": "pIC50", "setting": "[1]", "value": 5.89}, {"measurement": "pIC50", "setting": "ALPK1", "value": 6.78}]}
{"smiles": "C#Cc1cccc2sc(NC(=O)c3c(F)cc(N4CCN(Cc5ccc(F)cc5)CC4)cc3F)nc12", "note": "[Compound T065, N-(4-ethynylbenzo[d]thiazol-2-yl)-2,6-difluoro-4-(4-(4-fluorobenzyl)piperazin-1-yl)benzamide]", "values": [{"measurement": "pIC50", "setting": "[1]", "value": 5.18}, {"measurement": "pIC50", "setting": "ALPK1", "value": 6.74}]}
{"smiles": "C#Cc1cccc2sc(NC(=O)c3c(F)cc(-n4ccnc4)cc3F)nc12", "note": "[Compound T066, N-(4-ethynylbenzo[d]thiazol-2-yl)-2,6-difluoro-4-(1H-imidazol-1-yl)benzamide]", "values": [{"measurement": "pIC50", "setting": "[1]", "value": 5.81}, {"measurement": "pIC50", "setting": "ALPK1", "value": 6.44}]}
